Data on 10 compounds can be found in US10519152B2, “Compounds and their use in treating cancer” (AstraZeneca AB, priority 2017, dated 2019).

The test has as its target T1, Estrogen Receptor (ERα) in MCF-7 human ductal carcinoma breast cell line (Homo sapiens, UniProt P03372).
T1 construct: endogenous in cells; host or cells: MCF-7
T1 sequence (P03372 1-595): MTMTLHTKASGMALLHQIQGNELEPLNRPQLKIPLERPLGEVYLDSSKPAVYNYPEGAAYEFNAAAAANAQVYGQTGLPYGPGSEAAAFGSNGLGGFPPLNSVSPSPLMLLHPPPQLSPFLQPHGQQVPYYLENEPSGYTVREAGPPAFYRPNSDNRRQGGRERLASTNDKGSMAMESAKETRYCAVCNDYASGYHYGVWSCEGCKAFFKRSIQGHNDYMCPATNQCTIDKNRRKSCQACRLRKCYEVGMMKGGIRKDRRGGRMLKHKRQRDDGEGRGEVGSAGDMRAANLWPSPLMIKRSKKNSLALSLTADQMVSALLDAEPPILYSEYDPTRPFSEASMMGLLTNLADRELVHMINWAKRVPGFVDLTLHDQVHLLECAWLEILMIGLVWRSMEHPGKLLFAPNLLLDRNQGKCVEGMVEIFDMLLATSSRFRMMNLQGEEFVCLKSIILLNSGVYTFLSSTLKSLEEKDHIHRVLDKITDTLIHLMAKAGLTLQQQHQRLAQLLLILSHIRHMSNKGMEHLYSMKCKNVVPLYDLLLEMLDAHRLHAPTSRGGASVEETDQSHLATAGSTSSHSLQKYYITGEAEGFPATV
In words: MCF-7 ER degradation assay (cell based immuno-fluorescence). Conditions: MCF-7 cells; for ER degradation ≥ 90% at 0.3 μM: ER degradation by fulvestrant at 0.3 μM is defined as 100%; for DC50: 18-22 hours incubation, 50% reduction of ERα expression, single experiment or average of two or more, read-out: MCF-7 ER degradation IC50. In short, it runs like this: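 MCF-7 human ductal carcinoma breast cells were seeded at 3.75×10^4 cells per mL (40 μL per well) in 384 well plates with phenol red free DMEM containing 2 mM L-Glutamine and 5% (v/v) Charcoal/Dextran treated foetal calf serum. After overnight culture, compounds were acoustically dispensed, incubated 18-22 hours, then cells were formaldehyde-fixed and immunostained for ERα.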

For `Cc1ncsc1-c1ccc(CNC(=O)[C@@H]2C[C@@H](O)CN2C(=O)[C@@H](NC(=O)COCCOCCOCCCNC(=O)c2cc(F)c([C@@H]3c4[nH]c5ccccc5c4C[C@@H](C)N3CC(C)(C)F)c(F)c2)C(C)(C)C)cc1` [Example 84, (2S,4R)-1-((S)-16-(tert-Butyl)-1-(3,5-difluoro-4-((1R,3R)-2-(2-fluoro-2-methylpropyl)-3-methyl-2,3,4,9-tetrahydro-1H-pyrido[3,4-b]indol-1-yl)phenyl)-1,14-dioxo-6,9,12-trioxa-2,15-diazaheptadecan-17-oyl)-4-hydroxy-N-(4-(4-methylthiazol-5-yl)benzyl)pyrrolidine-2-carboxamide], the “ER degradation ≥ 90% at 0.3 μM” value is “••” and the DC50 amounted to 0.7 nM.

Consider `Cc1ncsc1-c1ccc(CNC(=O)[C@@H]2C[C@@H](O)CN2C(=O)[C@@H](NC(=O)COCCCCCOc2cc(F)c([C@@H]3c4[nH]c5ccccc5c4C[C@@H](C)N3CC3(F)CC3)c(F)c2)C(C)(C)C)cc1` [Example 79, (2S,4R)-1-((S)-2-(2-((5-(3,5-difluoro-4-((1R,3R)-2-((1-fluorocyclopropyl)methyl)-3-methyl-2,3,4,9-tetrahydro-1H-pyrido[3,4-b]indol-1-yl)phenoxy)pentyl)oxy)acetamido)-3,3-dimethylbutanoyl)-4-hydroxy-N-(4-(4-methylthiazol-5-yl)benzyl)pyrrolidine-2-carboxamide], for which the “ER degradation ≥ 90% at 0.3 μM” value was “•” and the DC50 came to 2 nM.

`Cc1ncsc1-c1ccc(CNC(=O)[C@@H]2C[C@@H](O)CN2C(=O)[C@@H](NC(=O)c2ccc(N3CCN(CCNC(=O)/C=C/c4cc(F)c([C@@H]5c6[nH]c7ccccc7c6C[C@@H](C)N5CC(C)(C)F)c(F)c4)CC3)cc2)C(C)(C)C)cc1` [Example 67, (2S,4R)-1-((S)-2-(4-(4-(2-((E)-3-(3,5-difluoro-4-((1R,3R)-2-(2-fluoro-2-methylpropyl)-3-methyl-2,3,4,9-tetrahydro-1H-pyrido[3,4-b]indol-1-yl)phenyl)acrylamido)ethyl)piperazin-1-yl)benzamido)-3,3-dimethylbutanoyl)-4-hydroxy-N-(4-(4-methylthiazol-5-yl)benzyl)pyrrolidine-2-carboxamide, Trifluoroacetic Acid]: the “ER degradation ≥ 90% at 0.3 μM” value is “•” and the DC50 stood at 4.5 nM.

`Cc1ncsc1-c1ccc(CNC(=O)[C@@H]2C[C@@H](O)CN2C(=O)[C@@H](NC(=O)COCCOCCOCCOCCOCC(=O)Nc2ccc([C@@H]3c4[nH]c5ccccc5c4C[C@@H](C)N3CC(C)(C)F)cc2)C(C)(C)C)cc1` [Example 56, N^1-(4-((1R,3R)-2-(2-fluoro-2-methylpropyl)-3-methyl-2,3,4,9-tetrahydro-1H-pyrido[3,4-b]indol-1-yl)phenyl)-N^17—((S)-1-((2S,4R)-4-hydroxy-2-((4-(4-methylthiazol-5-yl)benzyl)carbamoyl)pyrrolidin-1-yl)-3,3-dimethyl-1-oxobutan-2-yl)-3,6,9,12,15-pentaoxaheptadecanediamide, Trifluoroacetic Acid]: the “ER degradation ≥ 90% at 0.3 μM” value is “••” and the DC50 came out at 1.5 nM.

`Cc1ncsc1-c1ccc(CNC(=O)[C@@H]2C[C@@H](O)CN2C(=O)[C@@H](NC(=O)COCc2ccc(COc3cc(F)c([C@@H]4c5[nH]c6ccccc6c5C[C@@H](C)N4CC(C)(C)F)c(F)c3)cn2)C(C)(C)C)cc1` [Example 86, (2S,4R)-1-((S)-2-(2-((5-((3,5-Difluoro-4-((1R,3R)-2-(2-fluoro-2-methylpropyl)-3-methyl-2,3,4,9-tetrahydro-1H-pyrido[3,4-b]indol-1-yl)phenoxy)methyl)pyridin-2-yl)methoxy)acetamido)-3,3-dimethylbutanoyl)-4-hydroxy-N-(4-(4-methylthiazol-5-yl)benzyl)pyrrolidine-2-carboxamide]: the “ER degradation ≥ 90% at 0.3 μM” value was “••” and the DC50 worked out at 0.6 nM.

As to `Cc1ncsc1-c1ccc(CNC(=O)[C@@H]2C[C@@H](O)CN2C(=O)[C@@H](NC(=O)COCCOCCOCCOc2cc(F)c([C@@H]3c4[nH]c5ccccc5c4C[C@@H](C)N3CC(F)(F)CO)c(F)c2)C(C)(C)C)cc1` [Example 71, (2S,4R)-1-((S)-2-(tert-Butyl)-14-(4-((1R,3R)-2-(2,2-difluoro-3-hydroxypropyl)-3-methyl-2,3,4,9-tetrahydro-1H-pyrido[3,4-b]indol-1-yl)-3,5-difluorophenoxy)-4-oxo-6,9,12-trioxa-3-azatetradecanoyl)-4-hydroxy-N-(4-(4-methylthiazol-5-yl)benzyl)pyrrolidine-2-carboxamide], the “ER degradation ≥ 90% at 0.3 μM” value was “•” and the DC50 turned out to be 0.5 nM.

Turning to `Cc1ncsc1-c1ccc(CNC(=O)[C@@H]2C[C@@H](O)CN2C(=O)[C@@H](NC(=O)COCCCCOCCCOc2cc(F)c([C@@H]3c4[nH]c5ccccc5c4C[C@@H](C)N3CC(C)(C)F)c(F)c2)C(C)(C)C)cc1` [Example 93], the “ER degradation ≥ 90% at 0.3 μM” value was “•” and the DC50 was found to be 0.9 nM.

With `Cc1ncsc1-c1ccc(CNC(=O)[C@@H]2C[C@@H](O)CN2C(=O)[C@@H](NC(=O)COCc2cccc(CCCOc3cc(F)c([C@@H]4c5[nH]c6ccccc6c5C[C@@H](C)N4CC(C)(C)F)c(F)c3)c2)C(C)(C)C)cc1` [Example 74, (2S,4R)-1-((S)-2-(2-((3-(3-(3,5-Difluoro-4-((1R,3R)-2-(2-fluoro-2-methylpropyl)-3-methyl-2,3,4,9-tetrahydro-1H-pyrido[3,4-b]indol-1-yl)phenoxy)propyl)benzyl)oxy)acetamido)-3,3-dimethylbutanoyl)-4-hydroxy-N-(4-(4-methylthiazol-5-yl)benzyl)pyrrolidine-2-carboxamide], the “ER degradation ≥ 90% at 0.3 μM” value is reported as “••” and the DC50 came out at 14.3 nM.

For the compound `Cc1ncsc1-c1ccc(CNC(=O)[C@@H]2C[C@@H](O)CN2C(=O)[C@@H](NC(=O)COCCCCCCCOc2cc(F)c([C@@H]3c4[nH]c5ccccc5c4C[C@@H](C)N3CC(F)(F)CO)c(F)c2)C(C)(C)C)cc1` [Example 78, (2S,4R)-1-((S)-2-(2-((7-(4-((1R,3R)-2-(2,2-Difluoro-3-hydroxypropyl)-3-methyl-2,3,4,9-tetrahydro-1H-pyrido[3,4-b]indol-1-yl)-3,5-difluorophenoxy)heptyl)oxy)acetamido)-3,3-dimethylbutanoyl)-4-hydroxy-N-(4-(4-methylthiazol-5-yl)benzyl)pyrrolidine-2-carboxamide], the “ER degradation ≥ 90% at 0.3 μM” value is on record as “••” and the DC50 came out at 0.6 nM.

For the compound `Cc1ncsc1-c1ccc(CNC(=O)[C@@H]2C[C@@H](O)CN2C(=O)[C@@H](NC(=O)COCCOCCOCCOCC(=O)Nc2cc(F)c([C@@H]3c4[nH]c5ccccc5c4C[C@@H](C)N3CC(C)(C)F)c(F)c2)C(C)(C)C)cc1` [Example 68, N1-(3,5-difluoro-4-((1R,3R)-2-(2-fluoro-2-methylpropyl)-3-methyl-2,3,4,9-tetrahydro-1H-pyrido[3,4-b]indol-1-yl)phenyl)-N14-((S)-1-((2S,4R)-4-hydroxy-2-((4-(4-methylthiazol-5-yl)benzyl)carbamoyl)pyrrolidin-1-yl)-3,3-dimethyl-1-oxobutan-2-yl)-3,6,9,12-tetraoxatetradecanediamide], the “ER degradation ≥ 90% at 0.3 μM” value is “••” and the DC50 turned out to be 6.2 nM.
